Results as given in US20200237731A1, “USE OF CLOXACILLIN TO INHIBIT/PREVENT BIOFILM FORMATION” (priority 2017, published 2020).
≈ marks a conversion by molar mass, not a printed value. Where “and” joins values, the source holds several entries; their conditions need not be identical. Identical values can stand only once. Entries after “also recorded” stand apart in the source; their conditions may differ.

Columns and labels:
[1] = system: Staphylococcus aureus strains S14 and S39; test: Confocal microscopy of bacterial adhesion to polystyrene well bottom; assay type: cell-based; settings: for effect on adhesion / biofilm formation / effect on bacterial adhesion: 4 h; for effect on bacterial adhesion: strain S39
Description: Six-well polystyrene microplates of the same nature and with exactly the same properties as the microplates used in Example 1 (Antibiofilmogram®), i.e. Costar 6-well microplates, product code 3736. The 6-well microplates were used to obtain a sufficient surface area of biofilm formation for confocal microscopy observation. The concentrations corresponding to the MIC and MICb of the strains were tested. At the same time, controls in the absence of antibiotics, strains S14 and S39 were performed. After incubation for 4 h at 37° C. (similar to the conditions used in Example 1 (Antibiofilmogram®), the bottoms of the microplates were cut out and assembled with a glass slide in order to be able to proceed to the observation under confocal microscopy. The observation conditions were as follows: Objective: ×40; Zoom: ×2; Format: 2048×2048 pixels; Laser power; Zmax and Zmin: number of images in the stack; Size between each image: 0.42 μm. “Live/Dead” staining was performed. SYTO9 stains live (and dead) bacteria, while propidium iodide specifically stains dead bacteria. The result was obtained with an analysis of 2880 images (“Slices”).
The percentage of biofilm covering the bottom surface of the well bottom as a percentage of surface cover is shown on the vertical axis. In FIG. 2A, the density of S14 bacteria adhered to the bottom of the wells was shown and analyzed. […] In particular, from 10% to more than 20% of the bottom surface of the well was covered after 4 h of incubation, which is excessive to consider a use in a therapeutic treatment at this dose.

[2] = system: clinical strains of Staphylococcus aureus; test: Antibiofilmogram / BioFilm Ring Test: biofilm minimum inhibitory concentration (MICb); assay type: cell-based; settings: for MIC: Staphylococcus aureus; for MIC / MIC b: 4 h, BHI medium
Description: To determine and measure the effect of cloxacillin on biofilm formation, specifically bacterial adhesion, the first step in biofilm formation, Staphylococcus aureus strains S14 and S39 were incubated in the wells of a 96-well microplate in the presence of varying concentrations of cloxacillin. The concentrations tested ranged from 0.25 μg/mL to 32 μg/mL cloxacillin. This test is called, by BioFilm Control, an Antibiofilmogram®. The inoculum of bacteria was 4·10^6 bacteria/mL, in 200 μL brain heart infusion (BHI) medium, in the presence of magnetic microbeads (Toner 4, product code TON004) at a concentration of 2 μL per 200 μL, i.e. 10 μL/mL).
The microplate was incubated for 4 hat 37° C., then covered with 120 μL of contrast liquid (Contrast liquid; product code LIC001) and placed for 1 minute on a magnet block (product code BKTMB) designed so that each mini-magnet is centered with respect to the 96 wells. The microplate was then placed on a scanner and the image was acquired and analyzed by the BFCE3 software which quantifies the aggregation of the magnetic microbeads in the center of the wells and provides a biofilm formation index (BFI) value. A BFI value of 20, or close to 20 corresponds to maximum aggregation, therefore no biofilm formation, and therefore cloxacillin anti-adhesion efficacy. […] All intermediate values, allowing a quantitative measurement of the efficacy of cloxacillin are possible.
The experimental procedure and protocol were as described above.
The measurement of the MICb (determination of the biofilm minimum inhibitory concentration), using the BioFilm Ring ^Test® was performed in BHI medium. The conversion in mg/kg. The results are summarized in Table 1 according to the strains tested.

[3] = system: Staphylococcus aureus strains S14 and S39; test: Implanted subcutaneous catheter infection model in mice; assay type: in vivo; settings: 12 h, 24 h and 30 h

For `Cc1onc(-c2ccccc2Cl)c1C(=O)N[C@@H]1C(=O)N2[C@@H]1SC(C)(C)[C@@H]2C(=O)O` [cloxacillin], the “effect on adhesion / biofilm formation” value ([1]; strain S14, MIC dose (0.25 μg/mL)) was “allows a decrease in bacterial adhesion but does not inhibit it; also recorded: did not inhibit the adhesion”, the “bottom surface of the well covered by bacteria” value ([1]; strain S14, MIC dose (0.25 μg/mL), 4 h incubation) was 10% and the “effect on adhesion / biofilm formation” value ([1]; strain S14, MICb dose (2 μg/mL)) was “completely inhibit the adhesion”. The “effect on adhesion / biofilm formation” value ([1]; strain S14, sub-MIC dose (0.125 μg/mL, 0.5 MIC)) was “no effect on biofilm formation; also recorded: did not inhibit the adhesion”, the “effect on adhesion / biofilm formation” value ([1]; strain S14, sub-MICb dose (1 μg/mL)) was “completely inhibit the adhesion” and the “effect on bacterial adhesion” value ([1]; MIC dose (0.125 μg/mL)) was “no effect on bacterial adhesion”. The “effect on bacterial adhesion” value ([1]; MICb dose (6 μg/mL)) was “completely inhibit the adhesion”, the “effect on bacterial adhesion” value ([1]; sub-MIC dose (1/2 MIC)) was “no effect on bacterial adhesion” and the “effect on bacterial adhesion” value ([1]; sub-MICb dose (3 μg/mL)) was “completely inhibit the adhesion”. For the same molecule, the MIC ([2]; strain S02) was 2 µg/mL (≈ 4.59 µM), the MIC ([2]; strain S04) was 4 µg/mL (≈ 9.18 µM) and the MIC ([2]; strain S08) was 2 µg/mL (≈ 4.59 µM). The MIC ([2]; strain S11) was 4 µg/mL (≈ 9.18 µM), the MIC ([2]; strain S14) was 2 µg/mL (≈ 4.59 µM) and the MIC ([2]; strain S16) was 4 µg/mL (≈ 9.18 µM). It also gave an MIC ([2]; strain S19) of 2 µg/mL (≈ 4.59 µM), an MIC ([2]; strain S21) of 4 µg/mL (≈ 9.18 µM) and an MIC ([2]; strain S22) of 4 µg/mL (≈ 9.18 µM). For the same molecule, the MIC ([2]; strain S26) was 4 µg/mL (≈ 9.18 µM), the MIC ([2]; strain S27) was 4 µg/mL (≈ 9.18 µM) and the MIC ([2]; strain S31) was 4 µg/mL (≈ 9.18 µM). The MIC ([2]; strain S34) was 8 µg/mL (≈ 18.4 µM), the MIC ([2]; strain S38) was 16 µg/mL (≈ 36.7 µM) and the MIC ([2]; strain S39) was 8 µg/mL (≈ 18.4 µM). For the same molecule, the MIC ([2]; strain S40) was 4 µg/mL (≈ 9.18 µM), the MIC ([2]; strain S43) was 4 µg/mL (≈ 9.18 µM) and the MIC ([2]; strain S44) was 4 µg/mL (≈ 9.18 µM). It also gave an MIC ([2]; strain S46) of 2 µg/mL (≈ 4.59 µM), an MIC ([2]; strain S47) of 2 µg/mL (≈ 4.59 µM) and an MIC ([2]; strain S51) of 4 µg/mL (≈ 9.18 µM). It also gave an MIC ([2]; strain S58) of 16 µg/mL (≈ 36.7 µM), an MIC ([2]; strain S62) of 8 µg/mL (≈ 18.4 µM) and an MIC ([2]; strain S63) of 8 µg/mL (≈ 18.4 µM). For the same molecule, the MIC ([2]; strain S74) was 4 µg/mL (≈ 9.18 µM), the MIC ([2]; strain S83) was 16 µg/mL (≈ 36.7 µM) and the “mean MICb” value ([2]; panel of 26 strains, standard deviation 4.2 μg/mL) was 5.5 µg/mL. It also gave an MIC b ([2]; strain S02) of 2 µg/mL (≈ 4.59 µM), an MIC b ([2]; strain S14) of 2 µg/mL (≈ 4.59 µM) and an MIC b ([2]; strain S38) of 16 µg/mL (≈ 36.7 µM). The MIC b ([2]; strain S39) was 6 µg/mL and 4 to 6 µg/mL and 4 µg/mL, the MIC b ([2]; strain S58) was 16 µg/mL (≈ 36.7 µM) and the MIC b ([2]; strain S83) was 16 µg/mL (≈ 36.7 µM). The “bacteria attached to the implanted catheter (log CFU/g catheter) vs control” value ([3]; strain S14, MIC dose (5 mg/kg pre-infection, then 3 mg/kg every 2 h for 10 h, intraperitoneal)) was “ineffectiveness”, the “bacteria attached to the implanted catheter (log CFU/g catheter) vs control” value ([3]; strain S14, MICb dose (30 mg/kg pre-infection, then 15 mg/kg every 2 h for 10 h, intraperitoneal)) was “statistically significant difference from control (***)” and the “bacteria attached to the implanted catheter (log CFU/g catheter) vs control” value ([3]; strain S39, MIC dose (7 mg/kg pre-infection, then 4 mg/kg every 2 h for 10 h, intraperitoneal)) was “ineffectiveness”. The “bacteria attached to the implanted catheter (log CFU/g catheter) vs control” value ([3]; strain S39, MICb dose (45 mg/kg pre-infection, then 25 mg/kg every 2 h for 10 h, intraperitoneal)) was “statistically significant difference from control (***)”.
